Records with an inconclusive call do not appear. Calls of active or inactive are those of the source.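 Rule for the calls: active = Compounds that reduce signal, with fitted half-maximal dose at or under twice the top valid tested dose; inconclusive = Poor fit, or flat curve losing 30 to 70% of signal; inactive = Potency past limit, flat within 30%, or opposite direction.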
Assay: viability loss in HEK293T cells – cell-based, ATP luminescence, cherry-pick samples, cytotoxicity control, dose response (AID 687005)
Conditions: HEK293T viability, ATP luminescence (CellTiter-Glo), 48 h

Row | Structure (SMILES) | activity change, negative = cytotoxicity (at 26 µM (top of the series)) | other results
1 | COc1ccc(CN(C)C[C@@H]2Oc3ccc(NC(=O)Nc4ccc(F)cc4)cc3CC(=O)N([C@H](C)CO)C[C@H]2C)cc1 | -7.45% (inactive) | 
2 | O=C1CCC(C(=O)Nc2cccc3ccccc23)N1 (stereo unspecified) | 25.1% (inactive) | 
3 | C[C@H](O)C#Cc1ccc2c(c1)O[C@H](CN(C)C(=O)C1CCCCC1)[C@H](C)CN([C@@H](C)CO)S2(=O)=O | 34.3% (inactive) | 
4 | COC(=O)C1=C(C)N(Cc2ccc(F)cc2)C(=S)NC1c1ccccc1 (stereo unspecified) |  | activity change, negative = cytotoxicity (at 28.5 µM (top of the series)): 17.5% (inactive)
5 | C[C@H]1CN([C@@H](C)CO)C(=O)Cc2cc(NC(=O)Nc3cccc4ccccc34)ccc2O[C@H]1CN(C)S(=O)(=O)c1cccs1 | -25.9% (inactive) | 
6 | C[C@@H]1CCCCO[C@@H](CN(C)Cc2ccc(C(F)(F)F)cc2)[C@@H](C)CN([C@@H](C)CO)C(=O)c2cc(NS(=O)(=O)c3cn(C)cn3)ccc2O1 |  | activity change, negative = cytotoxicity (at 23.5 µM (top of the series)): -31.2% (inactive)
7 | CO[C@@H]1CC[C@@H]2CCOc3c(C#N)cccc3C(=O)N(C)C[C@H](c3ccccc3)CC(=O)N(C)C[C@@H]1O2 | -28.5% (inactive) | 
8 | Cc1noc(C)c1NC(=O)Nc1ccc2c(c1)C(=O)N(C)[C@H]1CC[C@H](CC(=O)N[C@H]3CCN(Cc4ccccc4)C3)O[C@H]1CO2 |  | activity change, negative = cytotoxicity (at 23.5 µM (top of the series)): -3.29% (inactive)
9 | CCCNC(=O)N1C[C@@H](O)COC[C@H]2O[C@H](CC(=O)N3CCN(C)CC3)CC[C@@H]21 | -7.83% (inactive) | 
10 | CC(C)NC(=O)Nc1cccc2c1O[C@H](CN(C)C)[C@H](C)CN([C@H](C)CO)C2=O |  | activity change, negative = cytotoxicity (at 23.5 µM (top of the series)): 7.48% (inactive)
11 | O=C(C[C@H]1CC[C@H]2[C@@H](COC[C@@H](O)CN2C(=O)Nc2ccc(Cl)cc2)O1)N1CCCCC1 | 25.8% (inactive) | 
12 | O=C(C[C@@H]1C[C@@H]2c3cc(NC(=O)C4CCC4)ccc3O[C@@H]2[C@H](CO)O1)NCc1cccc(F)c1 | 3.17% (inactive) | 
13 | CNC(=O)C[C@H]1CC[C@H]2[C@H](COc3ccc(NC(=O)c4cc(C)on4)cc3C(=O)N2C)O1 |  | activity change, negative = cytotoxicity (at 23.5 µM (top of the series)): -23.4% (inactive)
14 | COc1cccc(NC(=O)CN2CCN(S(=O)(=O)c3ccc(C(C)C)cc3)CC2)c1 | 35.1% (inactive) | 
15 | C[C@@H]1CN([C@@H](C)CO)C(=O)c2cc(NC(=O)Nc3ccccc3)ccc2O[C@@H]1CN(C)C(=O)Nc1cccc2ccccc12 | 203% (inactive) | 
16 | Cc1ccc(S(=O)(=O)Nc2ccc3c(c2)C(=O)N([C@@H](C)CO)C[C@H](C)[C@H](CN(C)S(=O)(=O)c2ccc(Cl)cc2)OCCCC[C@@H](C)O3)cc1 | -26.9% (inactive) | 
17 | C[C@@H]1CN([C@@H](C)CO)C(=O)c2cc(NC(=O)CCN3CCOCC3)ccc2O[C@@H]1CN(C)Cc1ccc(C(=O)O)cc1 | -11.9% (inactive) | 
18 | CCCCNC(=S)N/N=C/c1ccc(C#N)cc1 | -29.9% (inactive) | 
19 | CC(C)NC(=O)Nc1ccc2c(c1)C(=O)N([C@@H](C)CO)C[C@H](C)[C@@H](CN(C)C(=O)CCC(F)(F)F)OCCCC[C@H](C)O2 | 42.8% (inactive) | 
20 | C[C@H](CO)N1C[C@H](C)[C@H](CN(C)Cc2cccc(C(F)(F)F)c2)OCc2cnnn2CCCC1=O |  | activity change, negative = cytotoxicity (at 23.5 µM (top of the series)): 0.8% (inactive)
21 | COc1cc(NC(=O)CN2CCN(S(=O)(=O)c3ccc(C(C)C)cc3)CC2)cc(OC)c1 | 2.05% (inactive) | 
22 | CC1CCCCN1C(=O)CSc1nc(C2CC2)nc2c1cnn2-c1ccccc1 (stereo unspecified) | 39.5% (inactive) | 
23 | O=C(CN(c1ccccc1)S(=O)(=O)c1ccc(F)cc1)NC1CCS(=O)(=O)C1 (stereo unspecified) | -0.328% (inactive) | 

Row | Structure (SMILES) | activity change, negative = cytotoxicity (at 26 µM (top of the series)) | other results
24 | Cc1noc(C)c1S(=O)(=O)Nc1ccc2c(c1)C(=O)N([C@@H](C)CO)C[C@H](C)[C@@H](CN(C)Cc1ccc3c(c1)OCO3)OCCCC[C@@H](C)O2 | 45.4% (inactive) | 
25 | O=C(NC[C@H]1[C@@H](c2ccccc2)[C@@H](CO)N1C(=O)C1CCC1)NC1CCCC1 | -38.9% (inactive) | 
26 | Cc1noc(C)c1S(=O)(=O)N(C)C[C@H]1OCCCC[C@@H](C)Oc2ccc(NC(=O)CCCCCC(=O)Nc3ccccc3N)cc2C(=O)N([C@@H](C)CO)C[C@@H]1C | -1.73% (inactive) | 
27 | CCNC(=O)COc1cccc(C(=O)NCc2ccccc2)c1 | -54% (inactive) | 
28 | C[C@H]1CN([C@@H](C)CO)C(=O)Cc2cc(NC(=O)Nc3ccccc3)ccc2O[C@H]1CN(C)C(=O)Nc1ccc2c(c1)OCO2 | -2.2% (inactive) | 
29 | Cc1noc(C)c1S(=O)(=O)Nc1ccc2c(c1)CC(=O)N([C@@H](C)CO)C[C@@H](C)[C@@H](CN(C)S(=O)(=O)c1cccs1)O2 |  | activity change, negative = cytotoxicity (at 23.5 µM (top of the series)): -16.9% (inactive)
30 | CCC(C)(C(=O)Nc1ccccc1C)N(C(=O)CNC(C)=O)c1ccc(C)cc1 (stereo unspecified) | -11.7% (inactive) | 
31 | O=C(C[C@@H]1C=C[C@@H](NC(=O)c2cccc(F)c2)[C@H](CO)O1)NCCN1CCCC1 | 20.8% (inactive) | 
32 | CC(C)NC(=O)Nc1ccc2c(c1)CC(=O)N([C@@H](C)CO)C[C@@H](C)[C@H](CN(C)C(=O)Nc1ccc3c(c1)OCO3)O2 | 50.2% (inactive) | 
33 | COc1ccc(CN(C)C[C@H]2Oc3ccc(NS(C)(=O)=O)cc3CC(=O)N([C@@H](C)CO)C[C@H]2C)cc1 | -1.35% (inactive) | 
34 | Cc1cccc(C)c1NC(=O)C1NC(=O)CC1c1ccccc1 (stereo unspecified) |  | activity change, negative = cytotoxicity (at 42 µM (top of the series)): 0.826% (inactive)
35 | Cc1cc(C)c(NC(=O)C2CCCN2C)c(C)c1 (stereo unspecified) | 10.5% (inactive) | 
36 | COc1ccc(CNC(=O)C[C@H]2CC[C@H]3[C@@H](COc4ccc(NC(=O)C5CC5)cc4C(=O)N3C)O2)cc1 | 26% (inactive) | 
37 | C[C@@H]1CN([C@H](C)CO)C(=O)c2cc(NC(=O)Nc3cccc4ccccc34)ccc2O[C@@H]1CN(C)C(=O)Nc1ccccc1 | -5.06% (inactive) | 
38 | CO[C@@H]1CN(C)C(=O)c2ccc(NC(=O)Nc3ccccc3)cc2OC[C@H](C)N(C(C)=O)C[C@H]1C | -7.15% (inactive) | 
39 | CC(C)NC(=O)Nc1ccc2c(c1)C(=O)N([C@@H](C)CO)C[C@@H](C)[C@@H](CN(C)C(=O)c1ccncc1)OCCCC[C@@H](C)O2 | -15.2% (inactive) | 
40 | CO[C@@H]1CN(C)C(=O)c2cc(NC(=O)C3CCOCC3)ccc2OC[C@H](C)NC[C@@H]1C |  | activity change, negative = cytotoxicity (at 23.5 µM (top of the series)): -2.94% (inactive)
41 | Cc1noc(C)c1NC(=O)N(C)C[C@H]1OCCCC[C@H](C)Oc2ccc(NC(=O)NC(C)C)cc2C(=O)N([C@@H](C)CO)C[C@@H]1C |  | activity change, negative = cytotoxicity (at 23.5 µM (top of the series)): 68% (inactive)
42 | C[C@@H]1CN([C@@H](C)CO)C(=O)c2cc(C3=CCCCC3)cnc2O[C@H]1CN(C)C(=O)Cc1cccnc1 | -18.3% (inactive) | 
43 | O=C(C[C@@H]1CC[C@H](NC(=O)Cc2ccccn2)[C@@H](CO)O1)NCCc1ccccc1 | -8.35% (inactive) | 
44 | CC1(C(=O)Nc2ccc3ccccc3c2)CCC(=O)N1C1CC1 (stereo unspecified) | -28.4% (inactive) | 
45 | C[C@H](CO)N1C[C@H](C)[C@H](CN(C)Cc2cccnc2)Oc2ncc(C#CC3(O)CCCC3)cc2C1=O | -14.5% (inactive) | 
46 | COc1ccc(NC(=O)Nc2ccc3c(c2)C(=O)N([C@H](C)CO)C[C@@H](C)[C@H](CN(C)S(=O)(=O)c2ccc(Cl)cc2)OCCCC[C@@H](C)O3)cc1 | -9.56% (inactive) | 

— PubChem BioAssay AID687005 (Broad Institute, 2013)
